Measurements as given in the supplement of paper PMC10307832.

Key:
Crenolanib + AZD7762 = compound: CC1(COc2ccc3c(c2)ncn3-c2ccc3cccc(N4CCC(N)CC4)c3n2)COC1 [Crenolanib] + NC(=O)Nc1cc(-c2cccc(F)c2)sc1C(=O)N[C@H]1CCCNC1 [AZD7762] (partner 0.2 µM); assay: relative viability (nuclei count vs DMSO), 5 days (fraction); higher = more cells survive
Summary of the method: (§1)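 Relative viability was taken as the ratio of nuclei in treated wells to nuclei in vehicle wells. Lung cancer cell lines in 1536-well plates received compounds by pin tool one day after seeding, either one drug alone or a fixed anchor-drug dose plus five library-drug doses (not always all listed) in √10 steps. Nuclei were counted on 4× images after 5 days of treatment, and values are medians of duplicate plates.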

Crenolanib + Trametinib = compound: CC1(COc2ccc3c(c2)ncn3-c2ccc3cccc(N4CCC(N)CC4)c3n2)COC1 [Crenolanib] + CC(=O)Nc1cccc(-n2c(=O)n(C3CC3)c(=O)c3c(Nc4ccc(I)cc4F)n(C)c(=O)c(C)c32)c1 [Trametinib] (partner 0.02 µM); assay: as above
Summary of the method: as §1

Row | Cell Line | relative viability (Crenolanib + AZD7762; first compound 0.01 µM) | relative viability (Crenolanib + AZD7762; first compound 0.03162 µM) | relative viability (Crenolanib + AZD7762; first compound 0.1 µM) | relative viability (Crenolanib + AZD7762; first compound 0.3162 µM) | relative viability (Crenolanib + AZD7762; first compound 1 µM) | relative viability (Crenolanib + Trametinib; first compound 0.01 µM) | relative viability (Crenolanib + Trametinib; first compound 0.03162 µM) | relative viability (Crenolanib + Trametinib; first compound 0.1 µM) | relative viability (Crenolanib + Trametinib; first compound 0.3162 µM) | relative viability (Crenolanib + Trametinib; first compound 1 µM)
1 | 201T | 0.686 | 0.633 | 0.605 | 0.739 | 0.694 | 0.703 | 0.703 | 0.688 | 0.722 | 0.745
2 | A-427 | 0.778 | – | 0.726 | 0.802 | 0.853 | 0.831 | – | 0.755 | 0.818 | 0.747
3 | ABC-1 | – | 0.776 | 0.961 | 1.01 | 0.902 | – | – | – | – | –
4 | BEN | 0.684 | 0.612 | 0.704 | 0.735 | 0.71 | 1.14 | 1.06 | 1.09 | 0.998 | 1.15
5 | CAL-12T | 0.778 | 0.553 | 0.641 | 0.634 | 0.799 | 0.466 | 0.345 | 0.372 | 0.347 | 0.294
6 | COR-L23 | – | – | – | – | – | 0.58 | 0.53 | 0.418 | 0.606 | 0.552
7 | COR-L 105 | – | – | – | – | – | 0.442 | 0.407 | 0.491 | 0.416 | 0.547
8 | ChaGo-K-1 | 0.876 | 0.863 | 0.866 | 0.933 | 0.891 | 0.877 | 0.895 | 0.868 | 0.916 | 0.846
9 | EKVX | 0.733 | 0.779 | 0.731 | 0.841 | 0.761 | 0.365 | 0.405 | 0.348 | 0.332 | 0.413
10 | EMC-BAC-2 | 1.1 | – | 1.1 | 1.25 | 1.07 | 0.905 | – | 0.893 | 0.937 | 0.799
11 | EPLC-272H | 0.207 | 0.238 | 0.376 | 0.289 | 0.251 | 0.307 | 0.299 | 0.283 | 0.326 | 0.277
12 | H3255 | 1.05 | 0.761 | 0.907 | 0.835 | 0.797 | 0.646 | 0.612 | 0.639 | 0.754 | 0.627
13 | HARA | 0.399 | 0.391 | 0.588 | 0.248 | 0.509 | 0.795 | 0.955 | 0.774 | 0.723 | 0.628
14 | HCC-15 | 1.07 | 1.15 | 0.961 | 0.607 | 1.17 | 0.4 | 0.394 | 0.379 | 0.402 | 0.38
15 | HCC-44 | 1.05 | 0.955 | 1.01 | 1.07 | 0.973 | 1.05 | 1.1 | 1.03 | 1.11 | 0.945
16 | HCC-78 | 0.629 | 0.619 | 0.733 | 0.477 | 0.567 | 0.826 | 0.862 | 0.682 | 0.756 | 0.657
17 | HCC-366 | 0.689 | 0.327 | 0.333 | 0.363 | 0.474 | 0.367 | 0.374 | 0.3 | 0.422 | 0.345
18 | HCC-827 | 0.276 | 0.212 | 0.2 | 0.189 | 0.218 | 0.595 | 0.529 | 0.505 | 0.473 | 0.6

Row | Cell Line | relative viability (Crenolanib + AZD7762; first compound 0.01 µM) | relative viability (Crenolanib + AZD7762; first compound 0.03162 µM) | relative viability (Crenolanib + AZD7762; first compound 0.1 µM) | relative viability (Crenolanib + AZD7762; first compound 0.3162 µM) | relative viability (Crenolanib + AZD7762; first compound 1 µM) | relative viability (Crenolanib + Trametinib; first compound 0.01 µM) | relative viability (Crenolanib + Trametinib; first compound 0.03162 µM) | relative viability (Crenolanib + Trametinib; first compound 0.1 µM) | relative viability (Crenolanib + Trametinib; first compound 0.3162 µM) | relative viability (Crenolanib + Trametinib; first compound 1 µM)
19 | HOP-62 | 0.618 | 0.709 | 0.668 | 1.1 | 0.75 | 0.43 | 0.372 | 0.368 | 0.379 | 0.37
20 | LC-2-ad | 0.892 | 0.898 | 0.777 | 0.908 | 0.821 | 1.05 | 0.901 | 0.916 | 0.97 | 0.894
21 | LCLC-97TM1 | 0.316 | 0.219 | 0.41 | 0.561 | 0.277 | 0.215 | 0.176 | 0.186 | 0.188 | 0.199
22 | LCLC-103H | 0.758 | 0.761 | 0.714 | 0.759 | 0.702 | 0.686 | 0.643 | 0.651 | 0.692 | 0.667
23 | LK-2 | 0.483 | 0.46 | 0.423 | 0.499 | 0.453 | 0.987 | 0.747 | 0.859 | 0.899 | 0.727
24 | LOU-NH91 | 0.765 | 0.762 | 0.782 | 0.817 | 0.697 | 0.826 | 0.793 | 0.774 | 0.879 | 0.788
25 | LU99A | 0.42 | 0.419 | 0.414 | 0.467 | 0.401 | 0.527 | 0.499 | 0.514 | 0.618 | 0.541
26 | LXF-289 | 1.03 | 1.13 | 1.09 | 1.11 | 1.05 | 0.665 | 0.638 | 0.689 | 0.7 | 0.718
27 | NCI-H23 | 0.273 | 0.309 | 0.244 | 0.268 | 0.276 | 0.441 | 0.412 | 0.425 | 0.387 | 0.408
28 | NCI-H322M | 0.589 | 0.52 | 0.555 | 0.544 | 0.695 | 0.515 | 0.516 | 0.488 | 0.525 | 0.609
29 | NCI-H358 | 0.577 | 0.67 | 0.465 | 0.537 | 0.584 | 0.169 | 0.11 | 0.166 | 0.133 | 0.112
30 | NCI-H441 | 1.24 | 1.56 | 1.15 | 1.33 | 1.17 | 0.537 | 0.479 | 0.425 | 0.485 | 0.408
31 | NCI-H460 | 0.668 | 0.482 | 0.695 | 0.872 | 0.86 | 0.13 | 0.169 | 0.151 | 0.17 | 0.133
32 | NCI-H520 | – | – | – | – | – | 0.818 | 0.714 | 0.644 | 0.678 | 0.686
33 | NCI-H522 | 1.03 | 0.853 | 0.773 | 0.88 | 0.836 | 0.766 | 0.615 | 0.841 | 0.631 | 0.638
34 | NCI-H596 | 1.27 | 1.16 | 1.03 | 1.22 | 1.11 | 0.823 | 0.842 | 0.753 | 0.729 | 0.75
35 | NCI-H647 | 0.616 | 0.497 | 0.448 | 0.481 | 0.424 | 0.55 | 0.442 | 0.486 | 0.653 | 0.538
